Test results taken from patent publication US20180045715A1, “STRUCTURE AND FUNCTION OF THE SALICYCLIC ACID BINDING SITES ON HUMAN HMGB1 AND METHODS OF USE THEREOF FOR THE RATIONAL DESIGN OF BOTH SALICYCLIC ACID DERIVATIVES AND OTHER AGENTS THAT ALTER ANIMAL AND PLANT HMGBS ACTIVITIES” (Boyce Thompson Institute for Plant Research, Inc., priority 2015, published 2018).
Residue numbers refer to the chain shown, from its start. Several values for one entry are separate records, joined by “and”; a condition that tells them apart may be missing. Identical values can stand only once. Entries after “also recorded” stand apart in the source; their conditions may differ. Like-named read-outs stand apart in the source and are kept apart here.

Key:
[1] = target: T1, HMGB1^SS (Homo sapiens, UniProt P09429); test: HMGB1^SS-induced cytokine and COX-2 gene expression in human macrophages (qPCR); assay type: cell-based; settings: 3 h, 100 μM SA or 1 μM ac3AESA
T1 construct: (i) full length: residues 2-215; 6x His (cleaved yes); made in house; host or cells: Escherichia coli BL21
T1 sequence (P09429 2-215): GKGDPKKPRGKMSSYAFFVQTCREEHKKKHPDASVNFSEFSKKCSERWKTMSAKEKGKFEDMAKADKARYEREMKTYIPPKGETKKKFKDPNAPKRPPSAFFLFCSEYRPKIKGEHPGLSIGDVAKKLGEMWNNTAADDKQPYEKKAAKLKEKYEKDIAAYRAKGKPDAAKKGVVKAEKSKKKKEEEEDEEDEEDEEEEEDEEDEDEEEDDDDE
Protocol: (§1) Human HeLa cells were grown in T75 flasks in DMEM medium supplemented with penicillin (10,000 IU/mL) streptomycin ([…]), and 10% fetal calf serum. Ptgs2−/− MEFs were derived from Ptgs2−/− E16 mouse embryos, obtained from the mating of Ptgs2+/− mice purchased from Taconic Biosciences. PBMCs were isolated from buffy coats of donor blood (Hospital of Magenta, Milan, Italy) by Ficoll gradient centrifugation (Lymphoprep; AXIS-SHIELD. CD14+ monocytes were isolated by positive immunoselection (CD14 Microbeads; Miltenyi Biotec) according to the manufacturer's instructions, and differentiated into macrophages using X-Vivo medium supplemented with 1% heat inactivated human serum, GM-CSF, and M-CSF.
Macrophages were exposed to 3 μg/ml HMGB1^SS or 50 ng/ml LPS. Total RNAs were isolated using the Illustra RNAspin Mini kit (GE Healthcare), and complementary DNA (cDNA) was obtained by retro-transcription with oligo(dT) primers (Invitrogen, Carlsbad, Calif., USA) and SuperScript II Reverse Transcriptase (Invitrogen) following the manufacturers' instructions. Quantitative real-time PCR was performed using a LightCycler480 (Roche Molecular Diagnostics), in duplicates, using SYBR Green I master mix and the oligonucleotides listed in Table of primers below. The ΔCt method was used for quantification, and the β-actin gene was used for normalization.

[2] = after intake of 500 mg of aspirin; cited from earlier work
[3] = tested on: LPS-induced expression of COX-2, IL-6 and TNFα; test: LPS-induced cytokine and COX-2 gene expression in human macrophages (qPCR); assay type: cell-based; settings: 10 ng/ml LPS, 100 μM SA or 1 μM ac3AESA
Protocol: as §1
Total RNAs were isolated using the Illustra RNAspin Mini kit (GE Healthcare), and complementary DNA (cDNA) was obtained by retro-transcription with oligo(dT) primers (Invitrogen, Carlsbad, Calif., USA) and SuperScript II Reverse Transcriptase (Invitrogen) following the manufacturers' instructions. Quantitative real-time PCR was performed using a LightCycler480 (Roche Molecular Diagnostics), in duplicates, using SYBR Green I master mix and the oligonucleotides listed in Table of primers below. The ΔCt method was used for quantification, and the β-actin gene was used for normalization.

[4] = target: T2, HMGB1 Box A domain (Homo sapiens, UniProt P09429); test: 15N-1H HSQC titration for Kd measurement; assay type: binding
T2 construct: (iii) Box A: residues 10-80; hexaHis (TEV-cleavable) (N, cleaved yes); made in house
T2 sequence (P09429 10-80): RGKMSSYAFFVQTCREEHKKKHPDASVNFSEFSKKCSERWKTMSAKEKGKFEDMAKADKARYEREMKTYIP
Protocol: (§2) […] Samples were analyzed with and without SA or other candidate inhibitors at 25° C. Chemical shift perturbation studies were carried out using either a Bruker Avance 800 MHz Avance NMR system with 4-mm NMR tubes, or using a Bruker Avance 600 MHz NMR spectrometer equipped with a 1.7 mm micro cryoprobe. 1024 or 2048 complex points were acquired for each of 80 to 200 increments in the ^15N dimension with a recycle delay of 1 s. Each spectrum was typically acquired for 2-8 hrs. Chemical shift assignments were determined using a uniformly ^13C,^15N-enriched HMGB1-ΔC construct at 25° C. via traditional triple-resonance NMR experiments (Biamonti et al., 1994; Moseley et al., 2001) recorded on a Bruker 800 MHz NMR spectrometer equipped with a 5 mm cryoprobe. Disulfide oxidation studies were carried out using the ^15N-^1H SOFAST-HMQC NMR experiment (Schanda & Brutscher, 2005; Schanda et al., 2005; Zandarashvili et al., 2013).
NMR experiments were used to discover that ac3AESA binds to HMGB1 Box A domain of HMGB1 more tightly than SA itself. […] Chemical shift perturbations (CSPs) are defined as Δδppm=[(δHN*6.5)^2+δN^2]^1/2.

[5] = target: T3, full-length (FL) R24A/K28A HMGB1 (Homo sapiens, UniProt P09429, K28A/R24A); test: 15N-1H HSQC NMR binding to R24A/K28A HMGB1; settings: ~0.1 mM protein; 15 mM SA, 3 mM ac3AESA or 3 mM amorfrutin B1
T3 construct: (i) full length: residues 2-215; made in house
T3 sequence (P09429 2-215 R24A/K28A): T1 sequence (P09429 2-215) with R23A, K27A
Protocol: as §2
An alternative explanation is that SA, at low concentrations, affects another factor in vivo, which results indirectly in suppression of HMGB1^RE-induced chemotaxis. […] Therefore, these residues were mutated to Ala to form the double mutant Arg24Ala/Lys28Ala (R24A/K28A).

Compound: O=C(O)c1ccccc1O [SA, salicylic acid]
- suppression of cytokine (IL-6, TNFα) and COX-2 expression induced by HMGB1^SS [1]: partially or completely suppressed; also recorded: partially suppressed
- time to reach the stated SA plasma concentration [2]: ≤ 1 h
- effect on LPS-induced expression of cytokine and COX-2 genes [3]: did not suppress
- Kd ([4]; 0.2 mM Box A, pH 7.5, read-out: Kd of binding to HMGB1 Box A (HSQC titration, 1:1 fit)): ~90 mM and 90 mM
- Kd ([4]; Box A or full-length HMGB1, read-out: Kd from titrating SA with either Box A or full-length HMGB1): ~10 mM
- Kd ([4]; read-out: affinity (Kd) for Box A of HMGB1 as stated in definitions): ~10 mM
- binding to R24A/K28A HMGB1 (CSPs in HSQC) [5]: does not bind
